Source: patent publication US20090137572A1, “2-substituted-4-heteroaryl-pyrimidines useful for the treatment of proliferative disorders” (priority 2004, published 2009)

Key:
Assay type in all cases: biochemical
CDK1-cyclin B = CDK1-cyclin B (Homo sapiens, UniProt P06493); experiment: Kinase assay (radioactive phosphate incorporation), CDK1-cyclin B; details: read-out: Kinase Inhibition pIC50 CDK1-cyclin B (converted)
Protocol: (§1) Kinase assays. The compounds of the invention above were investigated for their ability to inhibit the enzymatic activity of various protein kinases (Table 2). This was achieved by measurement of incorporation of radioactive phosphate from ATP into appropriate polypeptide substrates. Recombinant protein kinases and kinase complexes were produced or obtained commercially. Assays were performed using 96-well plates and appropriate assay buffers (typically 25 mM β-glycerophosphate, 20 mM MOPS, 5 mM EGTA, 1 mM DTT, 1 mM […], pH 7.4), into which were added 2-4 μg of active enzyme with appropriate substrates. The reactions were initiated by addition of Mg/ATP mix (15 mM MgCl2+100 μM ATP with 30-50 kBq per well of [γ-^32P]-ATP) and mixtures incubated as required at 30° C. Reactions were stopped on ice, followed by filtration through p81 filterplates or GF/C filterplates (Whatman Polyfiltronics, Kent, UK). After washing 3 times with 75 mM aq orthophosphoric acid, plates were dried, scintillant added and incorporated radioactivity measured in a scintillation counter (TopCount, Packard Instruments, Pangbourne, Berks, UK). Compounds for kinase assay were made up as 10 mM stocks in DMSO and diluted into 10% DMSO in assay buffer.

CDK2-cyclin A = CDK2-cyclin A (Homo sapiens, UniProt P24941); experiment: Kinase assay (radioactive phosphate incorporation), CDK2-cyclin A; details: read-out: Kinase Inhibition pIC50 CDK2-cyclin A (converted)
Protocol: as §1

CDK2-cycline E = CDK2-cycline E (Homo sapiens, UniProt P24941); experiment: Kinase assay (radioactive phosphate incorporation), CDK2-cyclin E; details: read-out: Kinase Inhibition pIC50 CDK2-cycline E (converted)
Summary of the method: (§2)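 Inhibition was measured as transfer of radiolabelled phosphate from [γ-32P]-ATP (100 μM ATP, 15 mM MgCl2) onto polypeptide substrates by recombinant kinases or kinase complexes. Reactions ran at 30° C in MOPS/β-glycerophosphate buffer, pH 7.4, were stopped on ice and filtered before scintillation counting.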

CDK4-cyclin D1 = CDK4-cyclin D1 (Homo sapiens, UniProt P11802); experiment: Kinase assay (radioactive phosphate incorporation), CDK4-cyclin D1; details: read-out: Kinase Inhibition pIC50 CDK4-cyclin D1 (converted)
CDK4-cyclin D1, sequence (P11802 whole entry): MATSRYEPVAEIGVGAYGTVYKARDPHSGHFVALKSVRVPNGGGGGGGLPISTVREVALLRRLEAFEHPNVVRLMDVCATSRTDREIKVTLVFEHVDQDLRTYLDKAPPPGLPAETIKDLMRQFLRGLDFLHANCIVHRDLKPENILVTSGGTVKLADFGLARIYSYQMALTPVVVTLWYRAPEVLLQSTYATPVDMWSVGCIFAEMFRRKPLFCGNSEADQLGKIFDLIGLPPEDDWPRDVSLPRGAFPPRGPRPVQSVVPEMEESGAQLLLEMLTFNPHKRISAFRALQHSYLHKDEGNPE
CDK4-cyclin D1, sequence (P24385 whole entry partner): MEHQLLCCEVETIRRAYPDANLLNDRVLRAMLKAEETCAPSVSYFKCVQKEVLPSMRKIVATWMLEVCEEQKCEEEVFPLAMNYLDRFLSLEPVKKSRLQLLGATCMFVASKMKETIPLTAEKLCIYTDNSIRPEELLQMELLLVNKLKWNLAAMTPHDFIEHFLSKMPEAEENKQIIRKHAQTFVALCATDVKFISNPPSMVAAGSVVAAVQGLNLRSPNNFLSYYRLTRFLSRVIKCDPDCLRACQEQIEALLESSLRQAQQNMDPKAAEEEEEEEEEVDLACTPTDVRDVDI
Protocol: as §1

CDK7/cyclin H = CDK7/cyclin H (Homo sapiens, UniProt P50613); experiment: CDK 7 assay (CTD peptide substrate); details: read-out: Kinase Inhibition pIC50 CDK7-cyclin H (converted)
CDK7/cyclin H, sequence (P50613 whole entry): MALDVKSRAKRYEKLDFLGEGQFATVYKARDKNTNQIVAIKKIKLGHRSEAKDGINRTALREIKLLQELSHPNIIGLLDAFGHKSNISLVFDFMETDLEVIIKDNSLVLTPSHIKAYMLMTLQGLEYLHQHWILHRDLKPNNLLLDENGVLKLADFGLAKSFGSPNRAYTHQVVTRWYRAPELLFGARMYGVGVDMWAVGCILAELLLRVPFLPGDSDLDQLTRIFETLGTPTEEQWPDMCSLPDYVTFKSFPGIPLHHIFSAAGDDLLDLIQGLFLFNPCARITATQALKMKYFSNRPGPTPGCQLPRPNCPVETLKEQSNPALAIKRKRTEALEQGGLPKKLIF
CDK7/cyclin H, sequence (P51946 whole entry partner): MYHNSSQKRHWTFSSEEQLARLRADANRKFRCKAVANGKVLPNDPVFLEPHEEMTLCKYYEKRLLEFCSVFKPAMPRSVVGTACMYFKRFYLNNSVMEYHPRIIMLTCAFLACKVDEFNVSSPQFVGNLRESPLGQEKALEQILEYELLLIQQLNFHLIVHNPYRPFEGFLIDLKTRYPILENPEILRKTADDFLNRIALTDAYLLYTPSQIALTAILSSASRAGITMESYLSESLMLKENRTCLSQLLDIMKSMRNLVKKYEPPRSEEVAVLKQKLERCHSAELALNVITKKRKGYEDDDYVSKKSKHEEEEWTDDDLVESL
Summary of the method: (§3)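 Radiometric filter-binding read-out: 32P transferred from 100 μM [γ-32P]ATP to biotinyl-(YSPTSPS)4 CTD peptide. Enzyme 0.5-2 μg recombinant human complex; 20 mM MOPS pH 7.2, 15 mM MgCl2, vanadate, DTT; 45 min, 30° C; avidin bound, P81 plate washed, counted.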

CDK9/cyclin T1 = CDK9/cyclin T1 (Homo sapiens, UniProt P50750); experiment: CDK 9 assay (CTD peptide substrate); details: read-out: Kinase Inhibition pIC50 CDK9-cyclin T1 (converted)
CDK9/cyclin T1, sequence (P50750 whole entry): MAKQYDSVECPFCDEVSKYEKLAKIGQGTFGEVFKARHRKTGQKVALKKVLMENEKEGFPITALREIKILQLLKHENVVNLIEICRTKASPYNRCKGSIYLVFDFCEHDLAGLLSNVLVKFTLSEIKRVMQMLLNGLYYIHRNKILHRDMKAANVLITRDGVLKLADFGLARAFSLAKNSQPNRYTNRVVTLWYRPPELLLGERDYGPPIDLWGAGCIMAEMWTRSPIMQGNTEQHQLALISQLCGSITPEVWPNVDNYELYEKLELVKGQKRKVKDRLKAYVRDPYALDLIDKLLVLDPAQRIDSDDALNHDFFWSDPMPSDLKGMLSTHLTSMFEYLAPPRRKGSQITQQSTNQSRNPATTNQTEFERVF
CDK9/cyclin T1, sequence (O60563 whole entry partner): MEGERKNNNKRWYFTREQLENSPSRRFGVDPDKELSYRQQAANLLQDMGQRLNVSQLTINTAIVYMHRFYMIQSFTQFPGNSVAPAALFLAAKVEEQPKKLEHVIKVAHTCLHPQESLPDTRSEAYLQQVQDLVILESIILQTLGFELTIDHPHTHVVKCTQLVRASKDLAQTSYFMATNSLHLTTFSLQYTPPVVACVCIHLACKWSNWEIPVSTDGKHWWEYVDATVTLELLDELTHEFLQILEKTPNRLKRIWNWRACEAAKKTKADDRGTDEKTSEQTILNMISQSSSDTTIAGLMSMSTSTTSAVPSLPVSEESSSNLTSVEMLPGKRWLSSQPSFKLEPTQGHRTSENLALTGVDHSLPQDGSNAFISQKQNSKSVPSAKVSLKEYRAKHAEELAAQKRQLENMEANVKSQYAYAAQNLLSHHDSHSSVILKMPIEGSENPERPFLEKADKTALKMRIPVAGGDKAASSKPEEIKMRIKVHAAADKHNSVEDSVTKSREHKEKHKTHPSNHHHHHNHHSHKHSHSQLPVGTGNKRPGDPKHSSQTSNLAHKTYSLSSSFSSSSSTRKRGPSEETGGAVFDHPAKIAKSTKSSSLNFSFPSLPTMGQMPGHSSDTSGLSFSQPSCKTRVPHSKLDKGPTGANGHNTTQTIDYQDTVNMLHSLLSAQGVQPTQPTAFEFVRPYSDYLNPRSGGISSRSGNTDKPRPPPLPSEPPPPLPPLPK
Summary of the method: as §3

[1] = molecular target: T1, Flt3 (FMS-like tyrosine kinase-3) (Homo sapiens, UniProt P36888); experiment: Kinase assay (radioactive phosphate incorporation), Flt3; details: pIC50 is -log(IC50, M), read-out: Kinase Inhibition pIC50 Flt3 (converted)
T1 sequence (P36888 27-993): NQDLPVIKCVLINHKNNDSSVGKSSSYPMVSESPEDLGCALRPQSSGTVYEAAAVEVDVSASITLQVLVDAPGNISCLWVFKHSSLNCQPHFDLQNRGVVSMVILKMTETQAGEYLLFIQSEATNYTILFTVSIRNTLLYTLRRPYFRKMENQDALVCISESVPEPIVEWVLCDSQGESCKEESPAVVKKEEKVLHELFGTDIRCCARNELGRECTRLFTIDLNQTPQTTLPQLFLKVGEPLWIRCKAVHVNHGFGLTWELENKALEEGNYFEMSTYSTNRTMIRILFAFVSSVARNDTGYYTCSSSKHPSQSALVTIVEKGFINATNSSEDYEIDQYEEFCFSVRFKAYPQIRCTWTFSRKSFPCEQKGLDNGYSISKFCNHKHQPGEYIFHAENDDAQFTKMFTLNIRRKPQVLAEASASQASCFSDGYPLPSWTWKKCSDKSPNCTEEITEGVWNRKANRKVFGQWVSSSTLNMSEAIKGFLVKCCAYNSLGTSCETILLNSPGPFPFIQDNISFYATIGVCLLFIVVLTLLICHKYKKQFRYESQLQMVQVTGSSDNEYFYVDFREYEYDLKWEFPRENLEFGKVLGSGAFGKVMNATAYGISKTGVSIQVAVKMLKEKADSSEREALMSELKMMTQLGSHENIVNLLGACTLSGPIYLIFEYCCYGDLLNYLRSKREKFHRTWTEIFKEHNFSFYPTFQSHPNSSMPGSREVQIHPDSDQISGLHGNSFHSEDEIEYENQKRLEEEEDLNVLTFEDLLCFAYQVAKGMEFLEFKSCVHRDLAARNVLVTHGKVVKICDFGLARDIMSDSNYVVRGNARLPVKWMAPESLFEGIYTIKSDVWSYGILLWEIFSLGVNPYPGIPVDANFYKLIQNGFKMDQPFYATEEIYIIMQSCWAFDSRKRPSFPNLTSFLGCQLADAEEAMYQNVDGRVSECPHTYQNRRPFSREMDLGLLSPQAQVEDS
Summary of the method: as §2

Aurora A kinase = molecular target: T2, Aurora A kinase (Homo sapiens, UniProt O14965); experiment: Aurora-A (human) kinase assay (Kemptide substrate); details: pIC50 is -log(IC50, M); 15 μM ATP; read-out: Kinase Inhibition pIC50 Aurora A kinase (converted)
T2 construct: purchased
T2 sequence (O14965 1-403): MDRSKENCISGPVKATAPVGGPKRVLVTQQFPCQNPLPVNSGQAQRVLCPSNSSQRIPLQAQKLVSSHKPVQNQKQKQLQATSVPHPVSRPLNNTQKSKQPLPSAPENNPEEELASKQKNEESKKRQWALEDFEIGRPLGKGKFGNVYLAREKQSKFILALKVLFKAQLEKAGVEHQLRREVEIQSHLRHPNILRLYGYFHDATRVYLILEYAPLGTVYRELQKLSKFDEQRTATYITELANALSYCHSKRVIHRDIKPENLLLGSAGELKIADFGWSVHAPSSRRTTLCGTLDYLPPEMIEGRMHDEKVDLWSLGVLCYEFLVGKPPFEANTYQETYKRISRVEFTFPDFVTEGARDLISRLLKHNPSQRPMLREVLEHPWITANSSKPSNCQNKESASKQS
Summary of the method: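 Kemptide (LRRASLG, 200 μM) phosphorylation by 5-10 ng commercial aurora-A measured as [γ-33P] incorporation at 15 μM ATP with 10 mM Mg acetate, pH 7.0 MOPS buffer. Reaction ran 40 min at room temperature; acid-stopped, captured on P81 filters, scintillation read.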

CDK1-cyclin B, sequence (P06493 whole entry): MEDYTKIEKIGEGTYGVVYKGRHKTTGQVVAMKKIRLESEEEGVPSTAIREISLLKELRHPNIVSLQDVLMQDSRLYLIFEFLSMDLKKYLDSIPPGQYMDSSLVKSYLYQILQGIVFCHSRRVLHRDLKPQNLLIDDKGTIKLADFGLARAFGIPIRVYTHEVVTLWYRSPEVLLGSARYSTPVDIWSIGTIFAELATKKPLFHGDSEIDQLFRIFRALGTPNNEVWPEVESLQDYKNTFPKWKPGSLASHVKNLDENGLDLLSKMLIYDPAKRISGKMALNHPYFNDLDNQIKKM
CDK1-cyclin B, sequence (P14635 whole entry partner): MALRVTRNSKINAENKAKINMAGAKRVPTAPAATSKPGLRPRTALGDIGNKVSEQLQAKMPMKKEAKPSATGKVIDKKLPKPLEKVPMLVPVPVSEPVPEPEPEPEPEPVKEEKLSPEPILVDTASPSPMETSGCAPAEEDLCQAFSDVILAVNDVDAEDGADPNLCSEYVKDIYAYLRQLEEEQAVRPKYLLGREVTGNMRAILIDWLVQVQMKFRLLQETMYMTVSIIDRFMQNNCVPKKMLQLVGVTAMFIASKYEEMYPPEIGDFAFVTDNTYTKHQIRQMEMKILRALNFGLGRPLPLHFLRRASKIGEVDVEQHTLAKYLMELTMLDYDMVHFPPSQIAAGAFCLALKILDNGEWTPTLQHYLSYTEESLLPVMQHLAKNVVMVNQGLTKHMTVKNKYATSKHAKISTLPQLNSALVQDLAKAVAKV

Row | IC50 (CDK1-cyclin B) | IC50 (CDK2-cyclin A) | IC50 (CDK2-cycline E) | IC50 (CDK4-cyclin D1) | IC50 (CDK7/cyclin H) | IC50 (CDK9/cyclin T1) | IC50 [1] | IC50 (Aurora A kinase) | Structure (SMILES)
1 | 5010 nM | 3160 nM | 2510 nM | 3160 nM | 3980 nM | 398 nM | 100 nM | 15.8 nM | CCNc1nc(C)c(-c2ccnc(Nc3cccc(CC(=O)OCCOC)c3)n2)s1 [Compound 45, {3-[4-(2-Ethylamino-4-methyl-thiazol-5-yl)-pyrimidin-2-ylamino]-phenyl}-acetic acid 2-methoxy-ethyl ester]
2 | 631 nM | 631 nM | 251 nM | 631 nM | – | – | 63.1 nM | 50.1 nM | CNc1nc(C)c(-c2ccnc(Nc3cc(CO)cc(CO)c3)n2)s1 [Compound 48, {3-Hydroxymethyl-5-[4-(4-methyl-2-methylamino-thiazol-5-yl)-pyrimidin-2-ylamino]-phenyl}-methanol]
3 | 200 nM | 158 nM | 25.1 nM | 1000 nM | – | 316 nM | 200 nM | 5.01 nM | Cc1nc(C)c(-c2ccnc(Nc3cccc(CNS(C)(=O)=O)c3)n2)s1 [Compound 49, N-{3-[4-(2,4-Dimethyl-thiazol-5-yl)-pyrimidin-2-ylamino]-benzyl}-methanesulfonamide]
4 | 5010 nM | 1000 nM | 631 nM | 251 nM | – | – | – | – | CCNc1nc(C)c(-c2ccnc(Nc3ccc(N4CCN(C(C)=O)CC4)cc3)n2)s1 [Compound 58, 1-(4-{4-[4-(2-Ethylamino-4-methyl-thiazol-5-yl)-pyrimidin-2-ylamino]-phenyl}-piperazin-1-yl)-ethanone]
5 | 6310 nM | 3160 nM | 631 nM | 158 nM | 200 nM | 316 nM | 39.8 nM | 50.1 nM | CCNc1nc(C)c(-c2ccnc(Nc3ccc(N4CCN(Cc5ccccc5)CC4)cc3)n2)s1 [Compound 60, [4-(4-Benzyl-piperazin-1-yl)-phenyl]-[4-(2-ethylamino-4-methyl-thiazol-5-yl)-pyrimidin-2-yl]-amine]
6 | 6310 nM | 2000 nM | 398 nM | 251 nM | 398 nM | 158 nM | 63.1 nM | 20 nM | Cc1nc(N)sc1-c1ccnc(Nc2ccc(N3CCNCC3)cc2)n1 [Compound 61, [4-(2-Amino-4-methyl-thiazol-5-yl)-pyrimidin-2-yl]-(4-piperazin-1-yl-phenyl)-amine]
7 | 100 nM | 39.8 nM | 12.6 nM | – | 1000 nM | 158 nM | – | 316 nM | Cc1nc(N)sc1-c1ccnc(Nc2ccc(S(=O)(=O)NCc3ccccc3)cc2)n1 [Compound 73, 4-[4-(2-Amino-4-methyl-thiazol-5-yl)-pyrimidin-2-ylamino]-N-benzyl-benzenesulfonamide]
